Reference: PubChem BioAssay AID1996
Values after ≈ are worked out from the molar mass of the structure shown.

conditions: buffer; pH 7.4; 200.0 µM

First: O=C(O)CN1C(=O)CC(c2ccccc2)CC1=O
Second: NC(=O)CN1C(=O)NC(c2ccccc2)(c2ccccc2)C1=O
The solubility kinetic of the first is lower: 25 µg/mL (≈ 101 µM) for the first, greater than 46.4 µg/mL for the second.

Going from `O=C(Cn1cnc2ccccc21)Nc1cccc([N+](=O)[O-])c1` to `O=C(NCCc1ccc([N+](=O)[O-])cc1)c1ccccc1`, the solubility kinetic falls from 42.8 µg/mL (≈ 144 µM) to 14.2 µg/mL (≈ 52.5 µM) (3-fold).

First: CC(C)(C)c1ccc(C(=O)NC(=S)N2CCCC2)cc1
Second: Cc1ccc(SCc2ccc(C(=O)N3CCCC3)cc2)cc1
The solubility kinetic of the first is 4.3-fold lower: 7.2 µg/mL (≈ 24.8 µM) for the first, 31 µg/mL (≈ 99.5 µM) for the second.

Compared with `Cn1c(N)c(C(=O)COC(=O)Cc2ccc(Br)cc2)c(=O)n(C)c1=O`, `CC(C)OCCCNC(=O)Cc1ccc(Br)cc1` is 59-fold higher in solubility kinetic: 0.7 µg/mL (≈ 1.71 µM) for the first, 41.6 µg/mL (≈ 132 µM) for the second.

`CC(C)(C)C1CCc2onc(C(=O)O)c2C1` (stereo unspecified) and `CCCNC(=O)NC(=O)CN1CCCC1c1ccc2c(c1)OCCO2` (stereo unspecified) cannot be ordered by solubility kinetic: greater than 33.5 µg/mL for the first, greater than 52.1 µg/mL for the second.

Going from `O=C(c1ccccc1)C(Nc1ccccn1)c1ccccc1` (stereo unspecified) to `O=C(NC(=S)Nc1ccccc1[N+](=O)[O-])c1ccccc1`, the solubility kinetic falls from 27.8 µg/mL (≈ 96.4 µM) to 4.1 µg/mL (≈ 13.6 µM) (6.8-fold).

Compared with `CN=C1S/C(=C\c2cccc(Cl)c2Cl)C(=O)N1C`, `Cc1cccn(Cc2c(F)cccc2Cl)c1=O` is higher in solubility kinetic: less than 0.3 µg/mL for the first, greater than 37.8 µg/mL for the second.

`COc1cc(C(=O)NCc2cccs2)ccc1OCc1c(C)noc1C` and `COc1cc(C(=O)NCC(c2cccs2)N2CCOCC2)cc(Br)c1OCc1ccccc1` (stereo unspecified) are within 1.5-fold of each other in solubility kinetic: 5.9 µg/mL (≈ 15.8 µM) for the first, 6.3 µg/mL (≈ 11.9 µM) for the second.

Compared with `CC(NC(=O)c1cc2cc([N+](=O)[O-])ccc2oc1=O)C1CCCO1` (stereo unspecified), `CC(NC(=O)c1cc(F)c(F)cc1Cl)C1CC2CCC1C2` (stereo unspecified) is 6.5-fold lower in solubility kinetic: 36.5 µg/mL (≈ 110 µM) for the first, 5.6 µg/mL (≈ 17.8 µM) for the second.

First: N#CC(C#N)=Cc1cnc(N2CCN(c3ccccc3)CC2)s1
Second: CCc1c(C)nc(N2CCN(c3ccccc3)CC2)[nH]c1=O
The solubility kinetic of the first is lower: less than 0.1 µg/mL for the first, 8.8 µg/mL (≈ 29.5 µM) for the second.

First: Cc1nc2ccc(S(=O)(=O)N3CCCCC3)cc2s1
Second: CN1CCCN(C(=O)c2cccc(Br)c2)CC1
The solubility kinetic of the first is 1.7-fold lower: 21.4 µg/mL (≈ 72.2 µM) for the first, 35.4 µg/mL (≈ 119 µM) for the second.

`O=Cc1ccc(Sc2ncccn2)o1` and `O=C(Nc1ccccc1C(F)(F)F)c1cnccn1` are within 1.5-fold of each other in solubility kinetic: 24.2 µg/mL (≈ 117 µM) for the first, 21.5 µg/mL (≈ 80.5 µM) for the second.

`CC(NC(=O)c1ccncc1)c1ccc(Br)cc1` (stereo unspecified) and `O=C(O)c1ccn(COc2ccc(Br)cc2)n1` cannot be ordered by solubility kinetic: greater than 45.8 µg/mL for the first, greater than 44.6 µg/mL for the second.

Going from `Cc1cc(Nc2ccccc2)cc(=O)n1C` to `Cc1cccc(N2C(=O)c3ccccc3C2=O)n1`, the solubility kinetic rises from 30.9 µg/mL (≈ 144 µM) to greater than 35.7 µg/mL.

Compared with `CNc1nc(-c2ccccc2)[n+](-c2ccc(C)cc2)s1.[Br-]`, `Cc1ccc(NC(=S)N(Cc2ccccc2)C(C)C)cc1` is 5.5-fold lower in solubility kinetic: 42.1 µg/mL for the first, 7.6 µg/mL (≈ 25.5 µM) for the second.

`Cc1ccc2c(c1)c1c(n2CC(O)CN2CCC(C)CC2)CCCC1` (stereo unspecified) and `Cc1cccc(NC(=O)CCN2CCC(C(N)=O)CC2)c1` are within 1.5-fold of each other in solubility kinetic: 44.4 µg/mL (≈ 130 µM) for the first, 41.1 µg/mL (≈ 142 µM) for the second.

Going from `Cc1ccc(S(=O)(=O)Nc2cccc3ncccc23)cc1` to `CCOc1ccc(S(=O)(=O)NCc2cccnc2)cc1`, the solubility kinetic rises from 31.1 µg/mL (≈ 104 µM) to greater than 43.9 µg/mL.

Compared with `O=C(COC(=O)[C@@H]1CCCN1C(=O)c1cccs1)Nc1ccc(Br)cc1`, `O=C(Nc1ccc(C(=O)O)cc1)Nc1ccc([N+](=O)[O-])cc1` is higher in solubility kinetic: 2.4 µg/mL (≈ 5.49 µM) for the first, greater than 45.2 µg/mL for the second.

Compared with `O=C(CSc1nccn1-c1ccccc1)NO`, `COc1ccc(NC(=O)CSc2nccn2Cc2ccco2)c(OC)c1` is 1.6-fold higher in solubility kinetic: 32.1 µg/mL (≈ 129 µM) for the first, 51.9 µg/mL (≈ 139 µM) for the second.

`O=C(CN1C(=O)c2ccccc2C1=O)Nc1ccccc1N1CCOCC1` and `O=C(CN1C(=O)NC(Cc2c[nH]c3ccccc23)C1=O)Nc1ccccc1C(F)(F)F` (stereo unspecified) cannot be ordered by solubility kinetic: greater than 54.8 µg/mL for the first, greater than 64.6 µg/mL for the second.

`COc1ccc(C2NC(=O)N(C)C(C)=C2[N+](=O)[O-])cc1` (stereo unspecified) and `COc1ccc(CC(=O)Nc2cc(Cl)ccc2C(=O)O)cc1` cannot be ordered by solubility kinetic: greater than 41.6 µg/mL for the first, greater than 48 µg/mL for the second.

First: Nc1nc2ccc(NC(=O)c3ccco3)cc2s1
Second: O=C(NC1CC1)c1sc2ccccc2c1Cl
The solubility kinetic of the first is higher: greater than 38.9 µg/mL for the first, 1.6 µg/mL (≈ 6.36 µM) for the second.

First: COc1ccccc1Nc1ccc2nonc2c1[N+](=O)[O-]
Second: Nc1nc(Nc2ccccc2F)nc(NCc2ccccc2)c1[N+](=O)[O-]
The solubility kinetic of the first is higher: 2 µg/mL (≈ 6.99 µM) for the first, less than 0.1 µg/mL for the second.

`CC(C)(CC(=O)O)CC(=O)Nc1ccccc1Oc1ccccc1` and `O=C(NC1CC1)c1cccc(Oc2ccccc2)c1` cannot be ordered by solubility kinetic: greater than 49.1 µg/mL for the first, greater than 38 µg/mL for the second.

`CCSc1ccccc1C(=O)NCc1cccnc1` and `O=C1CSC(c2ccccc2)N1c1cccnc1` (stereo unspecified) cannot be ordered by solubility kinetic: greater than 40.9 µg/mL for the first, greater than 38.4 µg/mL for the second.

Going from `NC(=O)C1CCN(CC(=O)Nc2nccs2)CC1` to `CC(C)[C@H](NC(=O)N1CCC(Cc2ccccc2)CC1)C(=O)O`, the solubility kinetic rises from 38.4 µg/mL (≈ 143 µM) to greater than 47.8 µg/mL.

Going from `Cc1ccccc1C(=O)N1CCc2c([nH]c3ccccc23)C1C(F)(F)F` (stereo unspecified) to `O=C(Nc1cccc(C(=O)N2CCCc3ccccc32)c1)c1ccccc1`, the solubility kinetic rises from less than 0.4 µg/mL to 17.2 µg/mL (≈ 48.3 µM).

First: O=C(NC12CC3CC(CC(C3)C1)C2)c1ccc([N+](=O)[O-])o1
Second: Cc1cnc(C(=O)OCC(=O)C23CC4CC(CC(C4)C2)C3)cn1
The solubility kinetic of the first is lower: 34.9 µg/mL (≈ 120 µM) for the first, greater than 47.2 µg/mL for the second.

Going from `COc1ccc(NC2(c3ccccc3)OC(=O)c3ccccc32)cc1` (stereo unspecified) to `CC1CC(=O)Nc2ccccc2N1C(=O)COc1ccc2ccccc2c1` (stereo unspecified), the solubility kinetic rises from 1.5 µg/mL (≈ 4.53 µM) to 8.8 µg/mL (≈ 24.4 µM) (5.9-fold).

Going from `Cc1ccsc1C(=O)NCCc1c[nH]c2ccccc12` to `Cc1ccsc1C(=O)OCC(=O)N1CCc2ccccc2C1`, the solubility kinetic falls from greater than 42.7 µg/mL to 34.6 µg/mL (≈ 110 µM).

First: Cc1ccc(S(=O)(=O)N2CCN(C(=O)COC(=O)COc3cccc(C(F)(F)F)c3)CC2)c(C)c1
Second: Cc1ccc(C)c(S(=O)(=O)NC(C)C(=O)NCc2ccccn2)c1 (stereo unspecified)
The solubility kinetic of the first is lower: 8.7 µg/mL (≈ 16.9 µM) for the first, greater than 52.1 µg/mL for the second.

`CC1CCC(NC(=O)CN(C)S(=O)(=O)c2cnc[nH]2)CC1` (stereo unspecified) and `CN(C)CC(=O)N1CCc2ccccc2C1.O=C(O)C(=O)O` cannot be ordered by solubility kinetic: greater than 47.2 µg/mL for the first, greater than 46.2 µg/mL for the second.

`CN(C)CCNC(=O)C(=O)Nc1cc2c3c(c1)CCN3C(=O)CC2` and `Cc1ccc(Cl)cc1NC(=O)COC(=O)CCN1C(=O)C2CC=CCC2C1=O` (stereo unspecified) cannot be ordered by solubility kinetic: greater than 49.6 µg/mL for the first, greater than 60.7 µg/mL for the second.

First: C#CCSc1nc(C)cc(C(=O)OCC)c1C#N
Second: CCOC(=O)c1sc(-c2ccc(Cl)cc2)nc1O
The solubility kinetic of the first is 5.7-fold lower: 7.2 µg/mL (≈ 27.7 µM) for the first, 40.8 µg/mL (≈ 144 µM) for the second.

Compared with `CCN1CCN(C(=O)c2cc3cc(F)ccc3[nH]2)CC1`, `COc1ccc2[nH]c(C(=O)Nc3ncc(C)cc3Br)cc2c1` is 6-fold lower in solubility kinetic: 36.4 µg/mL (≈ 132 µM) for the first, 6.1 µg/mL (≈ 16.9 µM) for the second.

First: COCCCn1c(-c2cccs2)nc2nc3ccccc3nc21
Second: CC(C)n1c(CN2CCN(Cc3ccccc3)CC2)nc2ccccc21
The solubility kinetic of the first is 2.7-fold lower: 12.9 µg/mL (≈ 39.8 µM) for the first, 34.8 µg/mL (≈ 99.9 µM) for the second.

Going from `COc1ccc(/C(C)=N\O)cc1OC` to `CC(N)C(=O)OC(C)(C)Cc1ccc(Cl)cc1.Cl` (stereo unspecified), the solubility kinetic rises from 16.9 µg/mL (≈ 86.6 µM) to greater than 43.8 µg/mL.

`CC1(C2CC2)NC(=O)N(CC(=O)Nc2ccccc2C#N)C1=O` (stereo unspecified) and `N#Cc1cccc(NC(=O)CCN2C(=O)C3CCCCC3C2=O)c1` (stereo unspecified) cannot be ordered by solubility kinetic: greater than 46.8 µg/mL for the first, greater than 48.8 µg/mL for the second.

First: CCOc1c(Nc2cccc(Cl)c2)c(=O)c1=O
Second: Cc1c(Cl)ccc(S(=O)(=O)Nc2cccnc2)c1Cl
The solubility kinetic of the first is higher: greater than 37.8 µg/mL for the first, 5.1 µg/mL (≈ 16.1 µM) for the second.

`Cc1ccccc1NC(=O)NC1(C(=O)NCc2ccco2)CCCCC1` and `CCc1cccc2c(C(=O)CN3C(=O)NC4(CCCCC4)C3=O)c[nH]c12` are within 1.5-fold of each other in solubility kinetic: 8.5 µg/mL (≈ 23.9 µM) for the first, 7 µg/mL (≈ 19.8 µM) for the second.

Going from `CC(CNC(=O)CCc1ccccc1)NC(=O)CCc1ccccc1` (stereo unspecified) to `CCCC(C(=O)OCCN(CC)CC)(c1ccccc1)c1ccccc1.Cl`, the solubility kinetic rises from 19 µg/mL (≈ 56.1 µM) to 47.4 µg/mL (2.5-fold).

`CC(C)CCN1CCN(Cc2ccc(C(F)(F)F)cc2)CC1CCO` (stereo unspecified) and `Cl.N=c1ccn(Cc2ccc(F)cc2)cc1` cannot be ordered by solubility kinetic: greater than 53.8 µg/mL for the first, greater than 35.8 µg/mL for the second.

First: Cc1cc(C)c2c(c1)C1(OCCO1)C(=O)N2
Second: Cc1csc(/N=C/N(C)C)c1C#N
The solubility kinetic of the first is 1.7-fold lower: 16.1 µg/mL (≈ 73.4 µM) for the first, 28 µg/mL (≈ 145 µM) for the second.
